Results: US9266876B2 (Actelion Pharmaceuticals Ltd., priority 2012, dated 2016)

Experiments:
human CXCR3A = human CXCR3A (Homo sapiens (Human), UniProt P49682); experiment: FLIPR assay; type: cell-based; settings: CHO-K1 cells expressing the human CXCR3A coupled to Galpha(16); CXCL10 agonist 20 nM; Fluo-4-AM fluorescence; mean values if determined several times
Summary of the method: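 CHO-K1 cells expressing CXCR3A coupled to Gα16 were loaded with Fluo-4-AM for 1 h in Hepes-buffered HBSS, pH 7.4, with 5 mM probenecid. Compound dilutions were added on the FLIPR, followed by CXCL10 (added as a 20 nM solution). Baseline-subtracted peak fluorescence was fitted to a single-site curve for IC50.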

CXCR3 = CXCR3 (Homo sapiens (Human), UniProt P49682); experiment: Receptor internalization assay; type: cell-based; settings: human whole blood; final CXCL10 concentration 9 nM; 30 min 37° C.; CXCR3 cell surface expression on CD3 positive cells, flow cytometer; read-out: Internalization IC50
Description: B): Receptor Internalization Assay:
Stock solutions of test compounds are made up at a concentration of 10 mM in DMSO, and serially diluted in PBS containing 0.5% BSA to concentrations required for inhibition dose response curves. Diluted compounds are then mixed with an equal volume of CXCL10 (Peprotech) diluted in PBS. Anticoagulated venous human whole blood is added to the mixture, which is then incubated in a CO2 incubator at 37° C. to allow for ligand mediated receptor internalization (final CXCL10 concentration is 9 nM). After 30′, the blood is mixed with fluorescently labeled CXCR3 and CD3 specific antibodies (Becton Dickinson) and incubated on ice for 10 minutes. Samples are then mixed with BD FACS Lysing Solution (Becton Dickinson) in order to eliminate red blood cells. After washing the cells with PBS containing 0.5% BSA, the samples are then analyzed in a flow cytometer (FACS Canto II, Becton Dickinson). For data analysis using FACSDiva software (Becton Dickinson), the mean fluorescence corresponding to CXCR3 cell surface expression was determined on CD3 positive cells. The program GraphPad Prism is used to fit the data to a single site dose response curve and to calculate IC50 values.

Sequence of CXCR3 (P49682 whole entry): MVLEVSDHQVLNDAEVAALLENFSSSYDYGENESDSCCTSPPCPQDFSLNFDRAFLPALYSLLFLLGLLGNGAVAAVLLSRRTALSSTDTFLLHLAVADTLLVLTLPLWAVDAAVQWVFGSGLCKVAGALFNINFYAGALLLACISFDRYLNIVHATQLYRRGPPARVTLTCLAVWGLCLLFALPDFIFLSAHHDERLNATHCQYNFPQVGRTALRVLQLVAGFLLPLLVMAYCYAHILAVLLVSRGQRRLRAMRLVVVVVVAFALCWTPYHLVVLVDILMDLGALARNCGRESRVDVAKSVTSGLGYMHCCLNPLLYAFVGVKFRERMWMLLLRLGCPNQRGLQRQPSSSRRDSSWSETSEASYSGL
Sequence of human CXCR3A (P49682 whole entry): as above

## O=C(Cn1c(=O)[nH]c2cccnc21)N1CCN(c2scnc2-c2nc3ccccc3[nH]2)CC1 [Example 71, 3-(2-{4-[4-(1H-Benzoimidazol-2-yl)-thiazol-5-yl]-piperazin-1-yl}-2-oxo-ethyl)-1,3-dihydro-imidazo[4,5-b]pyridin-2-one]
Human CXCR3A
  IC50: 6 nM
CXCR3
  IC50: 639 nM

## C[C@@H]1CN(c2scnc2-c2nc3cc(Cl)ccc3[nH]2)C[C@H](C)N1C(=O)Cn1cnc2cccnc21 [Example 72, 1-{(2S,6R)-4-[4-(5-Chloro-1H-benzoimidazol-2-yl)-thiazol-5-yl]-2,6-dimethyl-piperazin-1-yl}-2-imidazo[4,5-b]pyridin-3-yl-ethanone]
Human CXCR3A
  IC50: 1 nM
CXCR3
  IC50: 231 nM

## C[C@@H]1CN(c2sc(C3CC3)nc2-c2nc3ccccc3[nH]2)CCN1C(=O)Cn1cnc2cccnc21 [Example 73, 1-{(R)-4-[4-(1H-Benzoimidazol-2-yl)-2-cyclopropyl-thiazol-5-yl]-2-methyl-piperazin-1-yl}-2-imidazo[4,5-b]pyridin-3-yl-ethanone]
Human CXCR3A
  IC50: 6 nM
CXCR3
  IC50: 800 nM

## Cn1c(=O)n(CC(=O)N2CCN(c3scnc3-c3nc4ccc(OC(F)(F)F)cc4[nH]3)CC2)c2ccccc21 [Example 74, 1-Methyl-3-(2-oxo-2-{4-[4-(6-trifluoromethoxy-1H-benzoimidazol-2-yl)-thiazol-5-yl]-piperazin-1-yl}-ethyl)-1,3-dihydro-benzoimidazol-2-one]
Human CXCR3A
  IC50: 2 nM
CXCR3
  IC50: 1040 nM

## Cn1c(=O)n(CC(=O)N2CCN(c3scnc3-c3nc4cc(C#N)ccc4[nH]3)CC2)c2ccccc21 [Example 75, 2-(5-{4-[2-(3-Methyl-2-oxo-2,3-dihydro-benzoimidazol-1-yl)-acetyl]-piperazin-1-yl}-thiazol-4-yl)-1H-benzoimidazole-5-carbonitrile]
Human CXCR3A
  IC50: 15 nM
CXCR3
  IC50: 721 nM

## O=C(CN1C(=O)CCc2ccccc21)N1CCN(c2scnc2-c2nc3ccccc3[nH]2)CC1 [Example 77, 1-(2-{4-[4-(1H-Benzoimidazol-2-yl)-thiazol-5-yl]-piperazin-1-yl}-2-oxo-ethyl)-3,4-dihydro-1H-quinolin-2-one]
Human CXCR3A
  IC50: 6 nM
CXCR3
  IC50: 1440 nM

## O=C(CN1C(=O)COc2ccccc21)N1CCN(c2scnc2-c2nc3ccccc3[nH]2)CC1 [Example 78, 4-(2-{4-[4-(1H-Benzoimidazol-2-yl)-thiazol-5-yl]-piperazin-1-yl}-2-oxo-ethyl)-4H-benzo[1,4]oxazin-3-one]
Human CXCR3A
  IC50: 11 nM
CXCR3
  IC50: 3120 nM

## O=C(Cn1cnc2cccnc21)N1[C@@H]2CC[C@H]1CN(c1scnc1-c1nc3ccccc3[nH]1)C2 [Example 79, rac-1-{(1S*,5R*)-3-[4-(1H-Benzoimidazol-2-yl)-thiazol-5-yl]-3,8-diaza-bicyclo[3.2.1]oct-8-yl}-2-imidazo[4,5-b]pyridin-3-yl-ethanone]
Human CXCR3A
  IC50: 6 nM
CXCR3
  IC50: 828 nM

## C[C@@H]1CN(c2sc(Br)nc2-c2nc3ccccc3[nH]2)CCN1C(=O)Cn1cnc2cccnc21 [Example 80, 1-{(R)-4-[4-(1H-Benzoimidazol-2-yl)-2-bromo-thiazol-5-yl]-2-methyl-piperazin-1-yl}-2-imidazo[4,5-b]pyridin-3-yl-ethanone]
Human CXCR3A
  IC50: 1 nM
CXCR3
  IC50: 459 nM

## C[C@@H]1CN(c2scnc2-c2nc3ccc(Cl)cc3[nH]2)CCN1C(=O)Cn1cnc2cccnc21 [Example 83, 1-{(R)-4-[4-(6-Chloro-1H-benzoimidazol-2-yl)-thiazol-5-yl]-2-methyl-piperazin-1-yl}-2-imidazo[4,5-b]pyridin-3-yl-ethanone]
Human CXCR3A
  IC50: 1 nM
CXCR3
  IC50: 340 nM

## C[C@@H]1CN(c2scnc2-c2nc3cc(Cl)ccc3[nH]2)CCN1C(=O)Cn1c(=O)oc2ccccc21 [Example 84, 3-(2-{(R)-4-[4-(5-Chloro-1H-benzoimidazol-2-yl)-thiazol-5-yl]-2-methyl-piperazin-1-yl}-2-oxo-ethyl)-3H-benzooxazol-2-one]
Human CXCR3A
  IC50: 1 nM
CXCR3
  IC50: 517 nM

## Cc1ccc2[nH]c(-c3ncsc3N3CCN(C(=O)Cn4cnc5cccnc54)[C@H](C)C3)nc2c1 [Example 85, 2-Imidazo[4,5-b]pyridin-3-yl-1-{(R)-2-methyl-4-[4-(5-methyl-1H-benzoimidazol-2-yl)-thiazol-5-yl]-piperazin-1-yl}-ethanone]
Human CXCR3A
  IC50: 1 nM
CXCR3
  IC50: 499 nM

## Cc1cc2[nH]c(-c3ncsc3N3CCN(C(=O)Cn4cnc5cccnc54)[C@H](C)C3)nc2cc1Cl [Example 87, 1-{(R)-4-[4-(5-Chloro-6-methyl-1H-benzoimidazol-2-yl)-thiazol-5-yl]-2-methyl-piperazin-1-yl}-2-imidazo[4,5-b]pyridin-3-yl-ethanone]
Human CXCR3A
  IC50: 1 nM
CXCR3
  IC50: 205 nM

## CC(C)c1ccc2nc(-c3ncsc3N3CCN(C(=O)Cn4cnc5cccnc54)[C@H](C)C3)[nH]c2c1 [Example 88, 2-Imidazo[4,5-b]pyridin-3-yl-1-{(R)-4-[4-(6-isopropyl-1H-benzoimidazol-2-yl)-thiazol-5-yl]-2-methyl-piperazin-1-yl}-ethanone]
Human CXCR3A
  IC50: 1 nM
CXCR3
  IC50: 126 nM

## C[C@@H]1CN(c2scnc2-c2nc3cc(F)c(F)cc3[nH]2)CCN1C(=O)Cn1cnc2cccnc21 [Example 91, 1-{(R)-4-[4-(5,6-Difluoro-1H-benzoimidazol-2-yl)-thiazol-5-yl]-2-methyl-piperazin-1-yl}-2-imidazo[4,5-b]pyridin-3-yl-ethanone]
Human CXCR3A
  IC50: 0.4 nM
CXCR3
  IC50: 895 nM

## C[C@@H]1CN(c2scnc2-c2nc3cc(C(F)(F)F)ccc3[nH]2)CCN1C(=O)Cn1cnc2cccnc21 [Example 92, 2-Imidazo[4,5-b]pyridin-3-yl-1-{(R)-2-methyl-4-[4-(5-trifluoromethyl-1H-benzoimidazol-2-yl)-thiazol-5-yl]-piperazin-1-yl}-ethanone]
Human CXCR3A
  IC50: 1 nM
CXCR3
  IC50: 317 nM

## C[C@@H]1CN(c2scnc2-c2nc3cc(F)ccc3[nH]2)CCN1C(=O)Cn1cnc2cccnc21 [Example 96, 1-{(R)-4-[4-(5-Fluoro-1H-benzoimidazol-2-yl)-thiazol-5-yl]-2-methyl-piperazin-1-yl}-2-imidazo[4,5-b]pyridin-3-yl-ethanone]
Human CXCR3A
  IC50: 0.5 nM
CXCR3
  IC50: 566 nM

## CCc1ccc2nc(-c3ncsc3N3CCN(C(=O)Cn4cnc5cccnc54)[C@H](C)C3)[nH]c2c1 [Example 99, 1-{(R)-4-[4-(6-Ethyl-1H-benzoimidazol-2-yl)-thiazol-5-yl]-2-methyl-piperazin-1-yl}-2-imidazo[4,5-b]pyridin-3-yl-ethanone]
Human CXCR3A
  IC50: 1 nM
CXCR3
  IC50: 221 nM

## C[C@@H]1CN(c2scnc2-c2nc3ccc(-c4ccccc4)cc3[nH]2)CCN1C(=O)Cn1cnc2cccnc21 [Example 100, 2-Imidazo[4,5-b]pyridin-3-yl-1-{(R)-2-methyl-4-[4-(6-phenyl-1H-benzoimidazol-2-yl)-thiazol-5-yl]-piperazin-1-yl}-ethanone]
Human CXCR3A
  IC50: 1 nM
CXCR3
  IC50: 747 nM

## C[C@@H]1CN(c2sc(C(F)(F)F)nc2-c2nc3ccccc3[nH]2)CCN1C(=O)CN1C(=O)Cc2ccccc21 [Example 103, 1-(2-{(R)-4-[4-(1H-Benzoimidazol-2-yl)-2-trifluoromethyl-thiazol-5-yl]-2-methyl-piperazin-1-yl}-2-oxo-ethyl)-1,3-dihydro-indol-2-one]
Human CXCR3A
  IC50: 1 nM
CXCR3
  IC50: 81 nM

## C[C@@H]1CN(c2sc(C(F)(F)F)nc2-c2nc3ccccc3[nH]2)CCN1C(=O)Cn1c(=O)[nH]c2cccnc21 [Example 104, 3-(2-{(R)-4-[4-(1H-Benzoimidazol-2-yl)-2-trifluoromethyl-thiazol-5-yl]-2-methyl-piperazin-1-yl}-2-oxo-ethyl)-1,3-dihydro-imidazo[4,5-b]pyridin-2-one]
Human CXCR3A
  IC50: 1 nM
CXCR3
  IC50: 119 nM

## O=C(Cn1ncc2ccccc21)N1CCN(c2scnc2-c2nc3ccccc3[nH]2)CC1 [Example 109, 1-{4-[4-(1H-Benzoimidazol-2-yl)-thiazol-5-yl]-piperazin-1-yl}-2-indazol-1-yl-ethanone]
Human CXCR3A
  IC50: 16 nM
CXCR3
  IC50: 1970 nM

## C[C@@H]1CN(c2sc(C3COC3)nc2-c2nc3ccccc3[nH]2)CCN1C(=O)Cn1cnc2cccnc21 [Example 113, 1-{(R)-4-[4-(1H-Benzoimidazol-2-yl)-2-oxetan-3-yl-thiazol-5-yl]-2-methyl-piperazin-1-yl}-2-imidazo[4,5-b]pyridin-3-yl-ethanone]
Human CXCR3A
  IC50: 9 nM
CXCR3
  IC50: 1510 nM

## C[C@@H]1CN(c2scnc2-c2nc3ccccc3[nH]2)CCN1C(=O)Cn1ncc2cccnc21 [Example 115, 1-{(R)-4-[4-(1H-Benzoimidazol-2-yl)-thiazol-5-yl]-2-methyl-piperazin-1-yl}-2-pyrazolo[3,4-b]pyridin-1-yl-ethanone]
Human CXCR3A
  IC50: 1 nM
CXCR3
  IC50: 809 nM

## C[C@@H]1CN(c2scnc2-c2nc3ccccc3[nH]2)CCN1C(=O)Cn1cc2cccnc2n1 [Example 116, 1-{(R)-4-[4-(1H-Benzoimidazol-2-yl)-thiazol-5-yl]-2-methyl-piperazin-1-yl}-2-pyrazolo[3,4-b]pyridin-2-yl-ethanone]
Human CXCR3A
  IC50: 3 nM
CXCR3
  IC50: 306 nM
